Experimental data as given in ChEMBL document CHEMBL1201862, “PubChem BioAssay data set” (2004).
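A five-concentration, 48-hour dose response in 96-well plates underlies each endpoint, interpolated linearly between surrounding concentrations. The concentration for 50% growth inhibition is given as GI50.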 Calls of active or inactive are those of the source. Rule as the data show it: active = GI50 up to about 1.1 µM and inactive = higher.

Experiments:
Assay in all cases: NCI anticancer screen, dose series, 48 h
SN12C = test system: SN12C
MOLT-4 = test system: MOLT-4
SK-OV-3 = test system: SK-OV-3
NCI/ADR-RES = test system: NCI/ADR-RES
T47D = test system: T47D
RXF 393 = test system: RXF 393
HOP-92 = test system: HOP-92
COLO 205 = test system: COLO 205
HT-29 = test system: HT-29
SK-MEL-5 = test system: SK-MEL-5
BT-549 = test system: BT-549
K562 = test system: K562
HOP-62 = test system: HOP-62
UACC-62 = test system: UACC-62
UACC-257 = test system: UACC-257
M14 = test system: M14
ACHN = test system: ACHN
DU-145 = test system: DU-145
NCI-H23 = test system: NCI-H23
SNB-19 = test system: SNB-19
A498 = test system: A498
TK-10 = test system: TK-10
CCRF-CEM = test system: CCRF-CEM
SW-620 = test system: SW-620
MCF7 = test system: MCF7
786-0 = test system: 786-0
OVCAR-8 = test system: OVCAR-8
HCT-15 = test system: HCT-15
Hs-578T = test system: Hs-578T
PC-3 = test system: PC-3
EKVX = test system: EKVX
MDA-N = test system: MDA-N
NCI-H226 = test system: NCI-H226
UO-31 = test system: UO-31
SF-268 = test system: SF-268
U-251 = test system: U-251
IGROV-1 = test system: IGROV-1
SF-295 = test system: SF-295
A549 = test system: A549
KM12 = test system: KM12
OVCAR-4 = test system: OVCAR-4
NCI-H460 = test system: NCI-H460
CAKI-1 = test system: CAKI-1
Malme-3M = test system: Malme-3M
MDA-MB-231 = test system: MDA-MB-231
OVCAR-3 = test system: OVCAR-3
HCC 2998 = test system: HCC 2998
SNB-75 = test system: SNB-75
OVCAR-5 = test system: OVCAR-5
MDA-MB-435 = test system: MDA-MB-435
RPMI-8226 = test system: RPMI-8226
SR = test system: SR
SK-MEL-28 = test system: SK-MEL-28
HCT-116 = test system: HCT-116
SF-539 = test system: SF-539
LOX IMVI = test system: LOX IMVI
HL-60 = test system: HL-60
NCI-H522 = test system: NCI-H522
SK-MEL-2 = test system: SK-MEL-2

C=C(C)COC(=O)COCC(=O)OCC(=C)C
GI50 (SN12C): > 100 µM (inactive)
GI50 (MOLT-4): > 100 µM (inactive)
GI50 (SK-OV-3): > 100 µM (inactive)
GI50 (NCI/ADR-RES): > 100 µM (inactive)
GI50 (T47D): > 100 µM (inactive)
GI50 (RXF 393): > 100 µM (inactive)
GI50 (HOP-92): > 100 µM (inactive)
GI50 (COLO 205): > 100 µM (inactive)
GI50 (HT-29): > 100 µM (inactive)
GI50 (SK-MEL-5): > 100 µM (inactive)
GI50 (BT-549): > 100 µM (inactive)
GI50 (K562): > 100 µM (inactive)
GI50 (HOP-62): > 100 µM (inactive)
GI50 (UACC-62): > 100 µM (inactive)
GI50 (UACC-257): > 100 µM (inactive)
GI50 (M14): > 100 µM (inactive)
GI50 (ACHN): > 100 µM (inactive)
GI50 (DU-145): > 100 µM (inactive)
GI50 (NCI-H23): > 100 µM (inactive)
GI50 (SNB-19): > 100 µM (inactive)
GI50 (A498): > 100 µM (inactive)
GI50 (TK-10): > 100 µM (inactive)
GI50 (CCRF-CEM): > 100 µM (inactive)
GI50 (SW-620): > 100 µM (inactive)
GI50 (MCF7): > 100 µM (inactive)
GI50 (786-0): > 100 µM (inactive)
GI50 (OVCAR-8): > 100 µM (inactive)
GI50 (HCT-15): > 100 µM
GI50 (Hs-578T): > 100 µM (inactive)
GI50 (PC-3): 95.3 µM (inactive)
GI50 (EKVX): > 100 µM (inactive)
GI50 (MDA-N): > 100 µM (inactive)
GI50 (NCI-H226): > 100 µM (inactive)
GI50 (UO-31): > 100 µM (inactive)
GI50 (SF-268): > 100 µM (inactive)
GI50 (U-251): > 100 µM (inactive)
GI50 (IGROV-1): > 100 µM (inactive)
GI50 (SF-295): > 100 µM (inactive)
GI50 (A549): > 100 µM (inactive)
GI50 (KM12): > 100 µM (inactive)
GI50 (OVCAR-4): > 100 µM (inactive)
GI50 (NCI-H460): > 100 µM (inactive)
GI50 (CAKI-1): > 100 µM (inactive)
GI50 (Malme-3M): > 100 µM (inactive)
GI50 (MDA-MB-231): > 100 µM (inactive)
GI50 (OVCAR-3): > 100 µM (inactive)
GI50 (HCC 2998): > 100 µM (inactive)
GI50 (SNB-75): > 100 µM (inactive)
GI50 (OVCAR-5): > 100 µM (inactive)
GI50 (MDA-MB-435): > 100 µM (inactive)
GI50 (RPMI-8226): > 100 µM (inactive)
GI50 (SR): > 100 µM (inactive)
GI50 (SK-MEL-28): > 100 µM (inactive)
GI50 (HCT-116): > 100 µM (inactive)

COc1cc(/C=C2\N=C(c3ccccc3)N(/N=C3\C(=O)Nc4ccccc43)C2=O)cc(OC)c1OC
GI50 (SN12C): > 100 µM (inactive)
GI50 (MOLT-4): 25.4 µM (inactive)
GI50 (SK-OV-3): > 100 µM (inactive)
GI50 (NCI/ADR-RES): > 100 µM (inactive)
GI50 (T47D): > 100 µM (inactive)
GI50 (RXF 393): > 100 µM (inactive)
GI50 (HOP-92): 40.3 µM (inactive)
GI50 (COLO 205): 57.4 µM (inactive)
GI50 (HT-29): > 100 µM (inactive)
GI50 (SK-MEL-5): > 100 µM (inactive)
GI50 (BT-549): > 100 µM (inactive)
GI50 (K562): > 100 µM (inactive)
GI50 (HOP-62): > 100 µM (inactive)
GI50 (UACC-62): > 100 µM (inactive)
GI50 (UACC-257): > 100 µM (inactive)
GI50 (M14): > 100 µM (inactive)
GI50 (ACHN): > 100 µM (inactive)
GI50 (DU-145): > 100 µM (inactive)
GI50 (NCI-H23): 86.1 µM (inactive)
GI50 (SNB-19): > 100 µM (inactive)
GI50 (A498): > 100 µM (inactive)
GI50 (TK-10): > 100 µM (inactive)
GI50 (CCRF-CEM): 37.1 µM (inactive)
GI50 (SW-620): > 100 µM (inactive)
GI50 (MCF7): > 100 µM (inactive)
GI50 (786-0): > 100 µM (inactive)
GI50 (OVCAR-8): 94.2 µM (inactive)
GI50 (HCT-15): > 100 µM
GI50 (Hs-578T): 54 µM (inactive)
GI50 (PC-3): > 100 µM (inactive)
GI50 (EKVX): 46.2 µM (inactive)
GI50 (MDA-N): 42.3 µM (inactive)
GI50 (NCI-H226): 41.7 µM (inactive)
GI50 (UO-31): > 100 µM (inactive)
GI50 (SF-268): 66.4 µM (inactive)
GI50 (U-251): > 100 µM (inactive)
GI50 (IGROV-1): > 100 µM (inactive)
GI50 (SF-295): > 100 µM (inactive)
GI50 (A549): > 100 µM (inactive)
GI50 (SF-539): > 100 µM (inactive)
GI50 (KM12): > 100 µM (inactive)
GI50 (OVCAR-4): 61.9 µM (inactive)
GI50 (LOX IMVI): 90.8 µM (inactive)
GI50 (NCI-H460): > 100 µM (inactive)
GI50 (HL-60): 94.4 µM (inactive)
GI50 (CAKI-1): > 100 µM (inactive)
GI50 (NCI-H522): 27.8 µM (inactive)
GI50 (Malme-3M): 58.5 µM (inactive)
GI50 (MDA-MB-231): > 100 µM (inactive)
GI50 (OVCAR-3): 24.9 µM (inactive)
GI50 (HCC 2998): > 100 µM (inactive)
GI50 (SK-MEL-2): > 100 µM (inactive)
GI50 (SNB-75): > 100 µM (inactive)
GI50 (OVCAR-5): > 100 µM (inactive)
GI50 (MDA-MB-435): 39.1 µM (inactive)
GI50 (SR): 38.6 µM (inactive)
GI50 (SK-MEL-28): > 100 µM (inactive)
GI50 (HCT-116): > 100 µM (inactive)

c1ccc(CCCNc2nnnc3ccccc23)cc1
GI50 (SN12C): > 100 µM (inactive)
GI50 (MOLT-4): 35.6 µM (inactive)
GI50 (SK-OV-3): > 100 µM (inactive)
GI50 (NCI/ADR-RES): 39.4 µM (inactive)
GI50 (T47D): 23.2 µM (inactive)
GI50 (RXF 393): 43.4 µM (inactive)
GI50 (HOP-92): > 100 µM (inactive)
GI50 (COLO 205): 62.5 µM (inactive)
GI50 (HT-29): > 100 µM (inactive)
GI50 (SK-MEL-5): 32.4 µM (inactive)
GI50 (BT-549): > 100 µM (inactive)
GI50 (K562): 47.5 µM (inactive)
GI50 (HOP-62): > 100 µM (inactive)
GI50 (UACC-62): 36 µM (inactive)
GI50 (UACC-257): 67.6 µM (inactive)
GI50 (M14): > 100 µM (inactive)
GI50 (ACHN): 85.1 µM (inactive)
GI50 (DU-145): > 100 µM (inactive)
GI50 (NCI-H23): 70.3 µM (inactive)
GI50 (SNB-19): > 100 µM (inactive)
GI50 (A498): > 100 µM (inactive)
GI50 (TK-10): > 100 µM (inactive)
GI50 (CCRF-CEM): 73.8 µM (inactive)
GI50 (SW-620): > 100 µM (inactive)
GI50 (MCF7): 46 µM (inactive)
GI50 (786-0): > 100 µM (inactive)
GI50 (OVCAR-8): > 100 µM (inactive)
GI50 (HCT-15): > 100 µM
GI50 (Hs-578T): 34.8 µM (inactive)
GI50 (PC-3): > 100 µM (inactive)
GI50 (EKVX): 70.1 µM (inactive)
GI50 (MDA-N): 69 µM (inactive)
GI50 (NCI-H226): > 100 µM (inactive)
GI50 (SF-268): > 100 µM (inactive)
GI50 (U-251): > 100 µM (inactive)
GI50 (IGROV-1): > 100 µM (inactive)
GI50 (SF-295): 44.2 µM (inactive)
GI50 (A549): 63 µM (inactive)
GI50 (SF-539): 57 µM (inactive)
GI50 (KM12): > 100 µM (inactive)
GI50 (OVCAR-4): 38.9 µM (inactive)
GI50 (LOX IMVI): 99.5 µM (inactive)
GI50 (NCI-H460): > 100 µM (inactive)
GI50 (HL-60): > 100 µM (inactive)
GI50 (CAKI-1): 46.7 µM (inactive)
GI50 (NCI-H522): 24.1 µM (inactive)
GI50 (Malme-3M): 58.2 µM (inactive)
GI50 (MDA-MB-231): > 100 µM (inactive)
GI50 (OVCAR-3): > 100 µM (inactive)
GI50 (SK-MEL-2): > 100 µM (inactive)
GI50 (SNB-75): > 100 µM (inactive)
GI50 (OVCAR-5): > 100 µM (inactive)
GI50 (MDA-MB-435): 55.1 µM (inactive)
GI50 (RPMI-8226): 35.8 µM (inactive)
GI50 (SR): 92.9 µM (inactive)
GI50 (SK-MEL-28): > 100 µM (inactive)
GI50 (HCT-116): > 100 µM (inactive)
